According to patent US20260240159A1, “HERBICIDAL COMPOSITIONS” (SYNGENTA CROP PROTECTION AG, priority 2023, published 2026):

Key:
Experiment in all cases: Post-emergence glasshouse herbicidal efficacy, percentage damage to plant
Format in all cases: in vivo
Conditions in all cases: after 14 days
Setaria faberi (SETFA) = system: Setaria faberi (SETFA)
Text: (§1) When active ingredients are combined, the activity to be expected (E) for any given active ingredient combination obeys the so-called Colby Formula and can be calculated as follows (Colby, S. R., Calculating synergistic and antagonistic responses of herbicide combination, Weeds, Vol. 15, pages 20-22; 1967): • ppm=milligrams of active ingredient (a.i.) per liter • X=% action by first active ingredient using p ppm of the active ingredient • Y=% action by second active ingredient sing q ppm of the active ingredient.
(§2) According to Colby, the expected action of active ingredients A+B using p+q ppm of active ingredient is represented by the following formula: […]
(§3) If the action actually observed (O) is greater than the expected action E then the action of the combination is super-additive, i.e. there is a synergistic effect. In mathematical terms, synergism corresponds to a positive value for the difference of (O-E). In the case of purely complementary addition of activities (expected activity), said difference (O-E) is zero. A negative value of said difference (O-E) signals a loss of activity compared to the expected activity.
(§4) Biological Efficacy Tests Seeds of a variety of test species are sown in standard soil in pots (Ipomoea hederacea (IPHOE), Alopecurus myosuroides (ALOMY), Lolium perenne (LOLPE), Echinochloa crus-galli (ECHCG), and Setaria faberi (SETFA)), and cultivated under controlled conditions in a glasshouse (at 24/16° C., day/night; 14 hours light; 65% humidity), the plants are sprayed with an aqueous spray solution derived from the dissolution of the test compound or composition in acetone and IF50 (11.12% Emulsogen EL360 TM+44.44% N-methylpyrrolidone+44.44% Dowanol DPM glycol ether) which was then diluted to the required concentration using 0.2% Genapol X080 (CAS No. 9043-30-5) in water as the diluent. Test compounds or compositions are applied at the rates stated. The test plants are then grown in a glasshouse under controlled conditions in a glasshouse (at 24/16° C., day/night; 14 hours light; 65% humidity) and watered twice daily. After 14 days, the test is evaluated for the percentage damage caused to the plant (100=total damage to plant; 0=no damage to plant), and the result are shown below in tables B1 to B5.

[1] = system: Ipomoea hederacea (IPOHE)
Text: as §1, §2, §3, §4

[2] = system: Echinochloa crus-galli (ECHCG)
Text: as §1, §2, §3, §4

[3] = system: Alopecurus myosuroides (ALOMY)
Text: as §1, §2, §3, §4

Lolium perenne (LOLPE) = system: Lolium perenne (LOLPE)
Text: as §1, §2, §3, §4

Compound: CCc1cccc(C)c1N(C(=O)CCl)[C@@H](C)COC [S-metolachlor]
- Observed Activity (%) (Setaria faberi (SETFA); S-metolachlor 37.5 g/Ha alone): 72.5%
- Observed Activity (%) (Setaria faberi (SETFA); S-metolachlor 75 g/Ha alone): 82.5%
- Observed Activity (%) (Setaria faberi (SETFA); S-metolachlor 150 g/Ha alone): 85.0%
- Observed Activity (%) ([1]; S-metolachlor 62.5 g/Ha alone): 5.0%
- Observed Activity (%) ([1]; S-metolachlor 125 g/Ha alone): 7.5%
- Observed Activity (%) ([2]; S-metolachlor 18.75 g/Ha alone): 75.0%
- Observed Activity (%) ([2]; S-metolachlor 37.5 g/Ha alone): 85.0%
- Observed Activity (%) ([2]; S-metolachlor 75 g/Ha alone): 85.0%
- Observed Activity (%) ([3]; S-metolachlor 18.75 g/Ha alone): 0.0%
- Observed Activity (%) ([3]; S-metolachlor 37.5 g/Ha alone): 10.0%
- Observed Activity (%) ([3]; S-metolachlor 75 g/Ha alone): 0.0%
- Observed Activity (%) ([3]; S-metolachlor 150 g/Ha alone): 27.5%
- Observed Activity (%) ([3]; S-metolachlor 300 g/Ha alone): 45.0%
- Observed Activity (%) (Lolium perenne (LOLPE); S-metolachlor 18.75 g/Ha alone): 45.0%
- Observed Activity (%) (Lolium perenne (LOLPE); S-metolachlor 37.5 g/Ha alone): 60.0%
- Observed Activity (%) (Lolium perenne (LOLPE); S-metolachlor 75 g/Ha alone): 70.0%
- Observed Activity (%) (Lolium perenne (LOLPE); S-metolachlor 150 g/Ha alone): 67.5%
- Observed Activity (%) (Lolium perenne (LOLPE); S-metolachlor 300 g/Ha alone): 80.0%

Compound: CCOC(=O)C1(C)CC(c2cc(-n3c(=O)cc(C(F)(F)F)n(C)c3=O)c(F)cc2Cl)=NO1 (centres unmarked) [(Ia)]
- inhibition at 1.875 g/ha (Setaria faberi (SETFA); Setaria faberi, 336 h, (Ia) 1.875 g/Ha alone, read-out: Observed Activity (%)): 55%
- inhibition at 3.75 g/ha (Setaria faberi (SETFA); Setaria faberi, 336 h, (Ia) 3.75 g/Ha alone, read-out: Observed Activity (%)): 67.5%
- inhibition at 0.9375 g/ha ([1]; Ipomoea hederacea, 336 h, (Ia) 0.9375 g/Ha alone, read-out: Observed Activity (%)): 84.8%
- inhibition at 1.875 g/ha ([2]; Echinochloa crus-galli, 336 h, (Ia) 1.875 g/Ha alone, read-out: Observed Activity (%)): 15%
- inhibition at 3.75 g/ha ([2]; Echinochloa crus-galli, 336 h, (Ia) 3.75 g/Ha alone, read-out: Observed Activity (%)): 37.5%
- inhibition at 7.5 g/ha ([2]; Echinochloa crus-galli, 336 h, (Ia) 7.5 g/Ha alone, read-out: Observed Activity (%)): 99%
- inhibition at 1.875 g/ha ([3]; Alopecurus myosuroides, 336 h, (Ia) 1.875 g/Ha alone, read-out: Observed Activity (%)): 10%
- inhibition at 3.75 g/ha ([3]; Alopecurus myosuroides, 336 h, (Ia) 3.75 g/Ha alone, read-out: Observed Activity (%)): 27.5%
- inhibition at 7.5 g/ha ([3]; Alopecurus myosuroides, 336 h, (Ia) 7.5 g/Ha alone, read-out: Observed Activity (%)): 42.5%
- inhibition at 15 g/ha ([3]; Alopecurus myosuroides, 336 h, (Ia) 15 g/Ha alone, read-out: Observed Activity (%)): 60%
- inhibition at 1.875 g/ha (Lolium perenne (LOLPE); Lolium perenne, 336 h, (Ia) 1.875 g/Ha alone, read-out: Observed Activity (%)): 0%
- inhibition at 3.75 g/ha (Lolium perenne (LOLPE); Lolium perenne, 336 h, (Ia) 3.75 g/Ha alone, read-out: Observed Activity (%)): 12.5%
- inhibition at 7.5 g/ha (Lolium perenne (LOLPE); Lolium perenne, 336 h, (Ia) 7.5 g/Ha alone, read-out: Observed Activity (%)): 42.5%
- inhibition at 15 g/ha (Lolium perenne (LOLPE); Lolium perenne, 336 h, (Ia) 15 g/Ha alone, read-out: Observed Activity (%)): 50%
